The text below walks through data of patent US20240368168A1, “SARM1 ENZYME ACTIVITY INHIBITOR AND APPLICATION THEREOF” (ARTIVILA BIOPHARMA, priority 2021, published 2024).

The target of test [1] is T1, SARM1 protein in iSARM1 (HEK293) cells (Homo sapiens, UniProt Q6SZW1).
T1 construct: The full-length SARM1 was synthesized into the pUC57 plasmid by WZ Biosciences Inc., and PCR was performed using pUC57-SARM1 as a DNA template
T1 sequence (Q6SZW1 28-724): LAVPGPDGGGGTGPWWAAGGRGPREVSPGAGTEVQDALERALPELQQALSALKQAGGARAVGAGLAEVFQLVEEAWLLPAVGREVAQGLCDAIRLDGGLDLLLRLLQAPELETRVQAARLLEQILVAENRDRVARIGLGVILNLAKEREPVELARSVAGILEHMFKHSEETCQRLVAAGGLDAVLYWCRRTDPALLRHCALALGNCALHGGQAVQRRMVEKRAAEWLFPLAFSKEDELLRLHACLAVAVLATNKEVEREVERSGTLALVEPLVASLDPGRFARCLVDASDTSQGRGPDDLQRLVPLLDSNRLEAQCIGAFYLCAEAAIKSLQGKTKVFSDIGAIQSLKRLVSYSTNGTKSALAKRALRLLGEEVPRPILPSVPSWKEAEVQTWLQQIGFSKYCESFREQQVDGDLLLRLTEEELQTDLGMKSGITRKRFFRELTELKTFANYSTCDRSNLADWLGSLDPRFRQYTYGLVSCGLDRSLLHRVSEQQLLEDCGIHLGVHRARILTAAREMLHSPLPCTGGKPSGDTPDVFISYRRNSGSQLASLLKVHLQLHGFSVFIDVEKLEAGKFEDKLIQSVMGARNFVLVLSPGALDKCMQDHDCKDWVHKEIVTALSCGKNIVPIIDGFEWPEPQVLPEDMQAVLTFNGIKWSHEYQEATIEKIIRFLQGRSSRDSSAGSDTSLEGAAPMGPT
Description: Inhibitory activity in inducible SARM1 overexpressing cell line, intracellular cADPR level. The note with it: activator CZ-48 100 μM, cADPR content. It counts as cell-based. The essentials: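 Inducible SARM1-overexpressing HEK293 cells preincubated 1.5 h with inhibitor (50 μM final), then activated with 100 μM CZ-48 for 16 h. Intracellular cADPR extracted with perchloric acid, NAD+ removed by NADase, and quantified by cyclase-coupled resazurin cycling assay (Ex/Em 544/599, 30 min kinetics) against cADPR standards; inhibition rate and IC50 calculated.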

Test [2] concerns the target T2, dN-SARM1 protein (Homo sapiens, UniProt Q6SZW1).
T2 construct: the N-terminal mitochondrial localization signal peptide of SARM1 was removed
T2 sequence (Q6SZW1 28-724): T1 sequence (Q6SZW1 28-724)
Description: In vitro biochemical assay for inhibiting SARM1 enzymatic activity (% inhibition rate), PC6 fluorescence method. The settings on record: 20 μM compound; 50 μM NAD, 50 μM PC6, 50 μM NMN activator. The procedure:
The compounds were subjected to PC6 fluorescence method measurement [Chinese Patent 202010528147.3] using the dN-SARM1 protein obtained through “(4) Protein extraction” in “Expression and purification of SARM1 protein” in the above biological activity example 1.
First, 0.05 μg/ml dN-SARM1 and 20 μM compound were incubated in 50 mM Tris-HCl (pH 7.5) solution for 10 min, and then added with 50 μM NAD and 50 μM PC6 as substrate and 50 μM NMN as activator for 30 minutes of reaction at room temperature. The concentration of each component was the final concentration in the reaction system.
During the reaction, PC6 fluorescence spectrum dynamics were detected by a microplate reader, wherein the excitation wavelength and emission wavelength for detection were 390 nm and 520 nm, respectively. Finally, the reaction rate was used to express the activity of the protein. The higher the reaction rate, the stronger the activity of the protein and the lower the inhibitory efficiency of the compound.

Test [3] deals with T2, dN-SARM1 protein. Description: In vitro biochemical assay for inhibiting SARM1 enzymatic activity (IC50), PC6 fluorescence method. The note with it: 50 μM NAD, 50 μM PC6, 50 μM NMN activator. In short, it runs like this: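 Activity read as the rate of PC6 fluorescence change (390 nm excitation, 520 nm emission) over a 30 min room-temperature reaction containing final 50 μM each of NAD, PC6 and NMN activator. Enzyme, 0.05 μg/ml dN-SARM1 in 50 mM Tris-HCl pH 7.5, first incubated 10 min with compound diluted serially from 200 μM; IC50 calculated.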

With `CNc1ccc2ncc(-c3ccccc3)n2n1` [Compound 20], in test [1], the EC50 (commonly the midpoint of the concentration-response curve) was 1 to 10 µM. Further, at dN-SARM1 protein [2], the inhibition (as a rule, the share of the control response that was lost under treatment) at 20 µM was 50 to 89%. For the same compound, on dN-SARM1 protein [3], the IC50 (usually the concentration at which inhibition is half-maximal) is under 1 µM.

In test [1], `FC(F)(F)c1ccc2ncc(-c3ccccc3)n2c1` [Compound 25] yielded a concentration for a half-maximal effect (EC50) of 1 to 10 µM. On dN-SARM1 protein [2], this compound came in with an inhibition at 20 µM of over 90%. The compound also yielded a half-maximal inhibitory concentration (IC50) against dN-SARM1 protein [3] of 1 to 10 µM.

Take `c1cn2cc(N3CCOCC3)ccc2n1` [Compound 32]: the concentration giving a half-maximal response (EC50) in test [1] is 1 to 10 µM. Further, the inhibition at 20 µM at dN-SARM1 protein [2] was over 90%. Besides, the IC50 on dN-SARM1 protein [3] is 1 to 10 µM.

`Brc1cnc2ccc(N3CCOCC3)cn12` [Compound 33] showed a 50% effective concentration (EC50) in test [1] of 1 to 10 µM. The same compound registered an inhibition at 20 µM against dN-SARM1 protein [2] of over 90%. The compound further showed an IC50 at dN-SARM1 protein [3] of 1 to 10 µM.

Regarding `c1ccc(-c2cnc3ccc(N4CCOCC4)cn23)cc1` [Compound 34], in test [1], the EC50 lay in the range of 1 to 10 µM. The compound also registered an inhibition at 20 µM at dN-SARM1 protein [2] of over 90%. Also, the half-maximal inhibitory concentration (IC50) against dN-SARM1 protein [3] lay within 1 to 10 µM.

In test [1], `CN(C(=O)OC(C)(C)C)c1ccc2ncc(-c3ccc(N)cc3)n2c1` [Compound 40] had a concentration giving a half-maximal response (EC50) of 1 to 10 µM. Also, the inhibition at 20 µM at dN-SARM1 protein [2] is over 90%. This compound came in with an IC50 against dN-SARM1 protein [3] of 1 to 10 µM.

In test [1], `CC(C)(C)OC(=O)Nc1ccc2ncc(I)n2c1` [Compound 44] returned an EC50 of 1 to 10 µM. The inhibition at 20 µM on dN-SARM1 protein [2] is 50 to 89%. At dN-SARM1 protein [3], the IC50 was in the range of 1 to 10 µM.

For the compound `COCCOCC(=O)Nc1cccc(-c2cnc3ccc(NC(=O)COC)cn23)c1` [Compound 131], at dN-SARM1 protein [2], the inhibition at 20 µM was over 90%. On dN-SARM1 protein [3], this compound registered an IC50 of 1 to 10 µM.

Take `CN(C(=O)OC(C)(C)C)c1ccc2ncc(-c3cccc(C(=O)O)c3)n2c1` [Compound 132, 3-(6-((tert-butoxycarbonyl)(methyl)amino)imidazo[1,2-a]pyridin-3-yl)benzoic acid]: on dN-SARM1 protein [2], the inhibition at 20 µM is over 90%. The compound also showed an IC50 against dN-SARM1 protein [3] of 1 to 10 µM.

On dN-SARM1 protein [2], `CNc1ccc2ncc(-c3cccc(C(=O)NCCOCCOC)c3)n2c1` [Compound 134] came in with an inhibition at 20 µM of over 90%. The compound further registered a 50% inhibitory concentration (IC50) against dN-SARM1 protein [3] of under 1 µM.

Compound `CNc1ccc2ncc(-c3cccc(C(=O)NC4CCOCC4)c3)n2c1` [Compound 136] yielded an inhibition at 20 µM on dN-SARM1 protein [2] of over 90%. The compound also had a 50% inhibitory concentration (IC50) at dN-SARM1 protein [3] of under 1 µM.

Turning to `CC(C)(C)OC(=O)NCc1ccc2ncc(I)n2c1` [Compound 143], the inhibition at 20 µM against dN-SARM1 protein [2] was over 90%. This compound also returned an IC50 against dN-SARM1 protein [3] of 1 to 10 µM.

With `CC(C)(C)OC(=O)NCc1ccc2ncc(-c3cccc(N)c3)n2c1` [Compound 144], on dN-SARM1 protein [2], the inhibition at 20 µM was over 90%. Also, at dN-SARM1 protein [3], the half-maximal inhibitory concentration (IC50) is under 1 µM.

`COCCOCC(=O)Nc1cccc(-c2cnc3ccc(CNC(=O)OC(C)(C)C)cn23)c1` [Compound 145] yielded an inhibition at 20 µM against dN-SARM1 protein [2] of over 90%. At dN-SARM1 protein [3], this compound gave a half-inhibitory concentration (IC50) of under 1 µM.

As to `COCCOCC(=O)Nc1cccc(-c2cnc3ccc(CNC(=O)C(C)(C)C)cn23)c1` [Compound 146], at dN-SARM1 protein [2], the inhibition at 20 µM is over 90%. Moreover, on dN-SARM1 protein [3], the IC50 lay in the range of 1 to 10 µM.

`CN(C(=O)OC(C)(C)C)c1ccc2ncc(-c3cccc(NC(=O)C4CCOC4)c3)n2c1` (stereo not shown) [Compound 149]: the inhibition at 20 µM on dN-SARM1 protein [2] was over 90%. Further, the half-inhibitory concentration (IC50) against dN-SARM1 protein [3] lay within 1 to 10 µM.

In turn, `CN(C(=O)OC(C)(C)C)c1ccc2ncc(-c3cccc(NC(=O)C4COC4)c3)n2c1` [Compound 150] showed an inhibition at 20 µM on dN-SARM1 protein [2] of over 90%. This compound also showed an IC50 at dN-SARM1 protein [3] of 1 to 10 µM.

As to `CCOC(=O)CCC(=O)Nc1cccc(-c2cnc3ccc(N(C)C(=O)OC(C)(C)C)cn23)c1` [Compound 151], at dN-SARM1 protein [2], the inhibition at 20 µM was over 90%. This compound returned a 50% inhibitory concentration (IC50) on dN-SARM1 protein [3] of 1 to 10 µM.

Take `CN(C(=O)OC(C)(C)C)c1ccc2ncc(-c3cccc(NC(=O)NC[C@@H]4CCO4)c3)n2c1` [Compound 152]: the inhibition at 20 µM on dN-SARM1 protein [2] was over 90%. Besides, at dN-SARM1 protein [3], the IC50 was in the range of 1 to 10 µM.

In turn, `CNc1ccc2ncc(-c3cccc(OCCOCCOC)c3)n2c1` [Compound 153] displayed an inhibition at 20 µM against dN-SARM1 protein [2] of over 90%. Also, on dN-SARM1 protein [3], the 50% inhibitory concentration (IC50) fell in the range of 1 to 10 µM.

In the case of `CNc1ccc2ncc(-c3cccc(OCC4CCOCC4)c3)n2c1` [Compound 154], at dN-SARM1 protein [2], the inhibition at 20 µM is over 90%. The compound further registered an IC50 at dN-SARM1 protein [3] of under 1 µM.
